Assays:
[1] = molecular target: c-Kit kinase (Homo sapiens (Human), UniProt P10721); assay: c-Kit biochemical assay (AlphaScreen kinase activity)
In short: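 AlphaScreen: c-Kit phosphorylates biotin-(E4Y)3 (100 nM) at 10 μM ATP, pH 7.2 HEPES buffer with Mg/Mn, 5% DMSO, 1 h room temperature; streptavidin donor and PY30 acceptor beads detect product. Second format: 100 μM ATP, 30 nM biotin-(E4Y)10, pH 7.5. IC50 from 8-point 1:3 dilution curves.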

[2] = test system: BaF3-FL KIT D816V or BaF3-FL KIT V560G/D816V cell line; assay: Cell-based assays of c-Kit mutant kinase activity (cell proliferation, ATPlite); conditions: at least one of the c-kit cell assays of Example 7
In short: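 BaF3 cells dependent on transfected full-length human KIT D816V or V560G/D816V (pCI-Neo, CMV promoter) were seeded at 1×10^4 cells/well and exposed to 8-point 1:3 dilutions from 10 μM top (0.2% DMSO) for three days at 37° C. ATPlite luminescence gave cell number; IC50 from concentration-response.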

Chain of c-Kit kinase (P10721 26-976): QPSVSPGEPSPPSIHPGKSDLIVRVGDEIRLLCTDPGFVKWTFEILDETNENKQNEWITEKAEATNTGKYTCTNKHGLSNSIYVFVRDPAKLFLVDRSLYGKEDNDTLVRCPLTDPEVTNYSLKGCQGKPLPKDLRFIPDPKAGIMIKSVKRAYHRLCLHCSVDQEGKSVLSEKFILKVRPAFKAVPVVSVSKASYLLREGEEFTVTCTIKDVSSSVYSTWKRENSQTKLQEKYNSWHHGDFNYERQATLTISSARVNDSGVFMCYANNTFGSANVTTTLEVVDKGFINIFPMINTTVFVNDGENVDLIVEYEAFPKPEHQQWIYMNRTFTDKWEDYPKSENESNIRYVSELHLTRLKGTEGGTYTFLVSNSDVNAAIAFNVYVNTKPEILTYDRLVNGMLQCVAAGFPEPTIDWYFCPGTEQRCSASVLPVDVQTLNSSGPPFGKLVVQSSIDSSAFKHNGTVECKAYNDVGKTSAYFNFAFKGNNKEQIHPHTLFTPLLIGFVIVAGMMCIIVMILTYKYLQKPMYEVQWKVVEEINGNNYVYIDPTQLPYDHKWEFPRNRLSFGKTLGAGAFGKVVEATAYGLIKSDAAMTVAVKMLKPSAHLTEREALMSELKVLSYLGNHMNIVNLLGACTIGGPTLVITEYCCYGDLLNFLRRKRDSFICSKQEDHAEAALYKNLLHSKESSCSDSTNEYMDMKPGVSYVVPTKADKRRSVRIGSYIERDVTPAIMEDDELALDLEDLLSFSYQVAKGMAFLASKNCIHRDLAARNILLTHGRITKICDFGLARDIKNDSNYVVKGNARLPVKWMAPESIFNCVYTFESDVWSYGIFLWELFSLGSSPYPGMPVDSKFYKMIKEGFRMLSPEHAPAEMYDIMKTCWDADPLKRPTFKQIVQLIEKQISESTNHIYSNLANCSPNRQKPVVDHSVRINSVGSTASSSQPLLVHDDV

Compound `CCOc1ccc(-c2[nH]c(C3(C)CCN(c4ncnc5[nH]c(-c6ccc(OCC(=O)O)cc6)cc45)CC3)nc2C)cc1C` [P-3244, 2-[4-[4-[4-[5-(4-ethoxy-3-methyl-phenyl)-4-methyl-1H-imidazol-2-yl]-4-methyl-1-piperidyl]-7H-pyrrolo[2,3-d]pyrimidin-6-yl]phenoxy]acetic acid] has an IC50 [1] of 0.0001 to 1 µM and an IC50 [2] of under 10000 nM.
`Cc1nc(C2(C)CCN(c3ncnc4[nH]c(-c5ccc(C#N)cc5)cc34)CC2)[nH]c1-c1ccc(Cl)cc1` [P-3180, 4-[4-[4-[5-(4-chlorophenyl)-4-methyl-1H-imidazol-2-yl]-4-methyl-1-piperidyl]-7H-pyrrolo[2,3-d]pyrimidin-6-yl]benzonitrile] gave an IC50 [1] of 0.0001 to 1 µM and an IC50 [2] of under 10000 nM.
`COc1ccc(-c2[nH]c(C3(C)CCN(c4ncnc5[nH]c(-c6ccc(OCC(=O)O)cc6)cc45)CC3)nc2C)cc1C` [P-3217, 2-[4-[4-[4-[5-(4-methoxy-3-methyl-phenyl)-4-methyl-1H-imidazol-2-yl]-4-methyl-1-piperidyl]-7H-pyrrolo[2,3-d]pyrimidin-6-yl]phenoxy]acetic acid] was tested, and the IC50 [1] was 0.0001 to 1 µM and the IC50 [2] was under 10000 nM.
With `Cc1nc(C2(C)CCN(c3ncnc4[nH]c(-c5ccc(N6CCOCC6)nc5)cc34)CC2)[nH]c1-c1ccc(OC(F)F)cc1` [P-3248, 4-[5-[4-[4-[5-[4-(difluoromethoxy)phenyl]-4-methyl-1H-imidazol-2-yl]-4-methyl-1-piperidyl]-7H-pyrrolo[2,3-d]pyrimidin-6-yl]-2-pyridyl]morpholine] the IC50 [1] was 0.0001 to 1 µM and the IC50 [2] was under 10000 nM.
With `Cc1nc(C2(C)CCN(c3ncnc4[nH]nc(C)c34)CC2)[nH]c1-c1cccc(OC(F)F)c1` [P-3201, 4-[4-[5-[3-(difluoromethoxy)phenyl]-4-methyl-1H-imidazol-2-yl]-4-methyl-1-piperidyl]-3-methyl-1H-pyrazolo[3,4-d]pyrimidine] the IC50 [1] was 1 to 10 µM and the IC50 [2] was under 10000 nM.
Compound `Cc1nc(C2(C)CCN(c3ncnc4[nH]c(-c5ccc(OCC(=O)O)cc5)cc34)CC2)[nH]c1-c1ccc(OC(F)F)cc1` [P-3241, 2-[4-[4-[4-[5-[4-(difluoromethoxy)phenyl]-4-methyl-1H-imidazol-2-yl]-4-methyl-1-piperidyl]-7H-pyrrolo[2,3-d]pyrimidin-6-yl]phenoxy]acetic acid] has an IC50 [1] of 0.0001 to 1 µM and an IC50 [2] of under 10000 nM.
`COc1ccc(-c2[nH]c(C3(C)CCN(c4ncnc5[nH]nc(C)c45)CC3)nc2C)cc1F` [P-3202, 4-[4-[5-(3-fluoro-4-methoxy-phenyl)-4-methyl-1H-imidazol-2-yl]-4-methyl-1-piperidyl]-3-methyl-1H-pyrazolo[3,4-d]pyrimidine] gave an IC50 [1] of 1 to 10 µM and an IC50 [2] of under 10000 nM.
For `COc1cccc(-c2[nH]c(C3(C)CCN(c4ncnc5[nH]c(-c6ccc(NS(C)(=O)=O)cc6)cc45)CC3)nc2C)c1` [P-3234, N-[4-[4-[4-[5-(3-methoxyphenyl)-4-methyl-1H-imidazol-2-yl]-4-methyl-1-piperidyl]-7H-pyrrolo[2,3-d]pyrimidin-6-yl]phenyl]methanesulfonamide], the IC50 [1] was 0.0001 to 1 µM and the IC50 [2] was under 10000 nM.
In the case of `Cc1cc2c(N3CCC(C)(c4nc(C)c(-c5cccc(OC(F)F)c5)[nH]4)CC3)ncnc2[nH]1` [P-3191, 4-[4-[5-[3-(difluoromethoxy)phenyl]-4-methyl-1H-imidazol-2-yl]-4-methyl-1-piperidyl]-6-methyl-7H-pyrrolo[2,3-d]pyrimidine], the IC50 [1] is reported as 1 to 10 µM and the IC50 [2] is reported as under 10000 nM.
In the case of `Cc1nc(C2(C)CCN(c3ncnc4[nH]c(-c5ccc(N6CCOCC6)nc5)cc34)CC2)[nH]c1-c1ccc(C(F)F)cc1` [P-3237, 4-[5-[4-[4-[5-[4-(difluoromethyl)phenyl]-4-methyl-1H-imidazol-2-yl]-4-methyl-1-piperidyl]-7H-pyrrolo[2,3-d]pyrimidin-6-yl]-2-pyridyl]morpholine], the IC50 [1] is reported as 0.0001 to 1 µM and the IC50 [2] is reported as under 10000 nM.
Compound `Cc1nc(C2(C)CCN(c3ncnc4[nH]c(-c5cnn(C(F)F)c5)cc34)CC2)[nH]c1-c1ccc(OC(F)F)cc1` [P-3242, 4-[4-[5-[4-(difluoromethoxy)phenyl]-4-methyl-1H-imidazol-2-yl]-4-methyl-1-piperidyl]-6-[1-(difluoromethyl)pyrazol-4-yl]-7H-pyrrolo[2,3-d]pyrimidine] has an IC50 [1] of 0.0001 to 1 µM and an IC50 [2] of under 10000 nM.
Compound `CNC(=O)c1ccc(-c2cc3c(N4CCC(C)(c5nc(C)c(-c6cccc(OC(F)F)c6)[nH]5)CC4)ncnc3[nH]2)cn1` [P-3236, 5-[4-[4-[5-[3-(difluoromethoxy)phenyl]-4-methyl-1H-imidazol-2-yl]-4-methyl-1-piperidyl]-7H-pyrrolo[2,3-d]pyrimidin-6-yl]-N-methyl-pyridine-2-carb oxamide] has an IC50 [1] of 0.0001 to 1 µM and an IC50 [2] of under 10000 nM.
`CCOc1ccc(-c2[nH]c(C3(C)CCN(c4ncnc5[nH]c(-c6ccc(N7CCOCC7)nc6)cc45)CC3)nc2C)cc1` [P-3227, 4-[5-[4-[4-[5-(4-ethoxyphenyl)-4-methyl-1H-imidazol-2-yl]-4-methyl-1-piperidyl]-7H-pyrrolo[2,3-d]pyrimidin-6-yl]-2-pyridyl]morpholine] showed an IC50 [1] of 0.0001 to 1 µM and an IC50 [2] of under 10000 nM.
`COc1ncc(-c2[nH]c(C3(C)CCN(c4ncnc5[nH]c(-c6ccc(C#N)cc6)cc45)CC3)nc2C)cc1F` [P-3181, 4-[4-[4-[5-(5-fluoro-6-methoxy-3-pyridyl)-4-methyl-1H-imidazol-2-yl]-4-methyl-1-piperidyl]-7H-pyrrolo[2,3-d]pyrimidin-6-yl]benzonitrile] showed an IC50 [1] of 0.0001 to 1 µM and an IC50 [2] of under 10000 nM.
`COc1ccc(-c2[nH]c(C3(C)CCN(c4ncnc5[nH]c(-c6ccc(C#N)cc6)cc45)CC3)nc2C)cn1` [P-3172, 4-[4-[4-[5-(6-methoxy-3-pyridyl)-4-methyl-1H-imidazol-2-yl]-4-methyl-1-piperidyl]-7H-pyrrolo[2,3-d]pyrimidin-6-yl]benzonitrile] showed an IC50 [1] of 0.0001 to 1 µM and an IC50 [2] of under 10000 nM.
Compound `COc1cccc(-c2[nH]c(C3(C)CCN(c4ncnc5[nH]c(-c6ccc(C(N)=O)cc6)cc45)CC3)nc2C)c1` [P-3225, 4-[4-[4-[5-(3-methoxyphenyl)-4-methyl-1H-imidazol-2-yl]-4-methyl-1-piperidyl]-7H-pyrrolo[2,3-d]pyrimidin-6-yl]benzamide] has an IC50 [1] of 0.0001 to 1 µM and an IC50 [2] of under 10000 nM.
`CCOc1ccc(-c2[nH]c(C3(C)CCN(c4ncnc5[nH]c(-c6ccc(N7CCOCC7)nc6)cc45)CC3)nc2C)cc1C` [P-3249, 4-[5-[4-[4-[5-(4-ethoxy-3-methyl-phenyl)-4-methyl-1H-imidazol-2-yl]-4-methyl-1-piperidyl]-7H-pyrrolo[2,3-d]pyrimidin-6-yl]-2-pyridyl]morpholine] gave an IC50 [1] of 0.0001 to 1 µM and an IC50 [2] of under 10000 nM.
`COc1ccc(-c2cc3c(N4CCC(C)(c5nc(C)c(-c6ccc(C(F)F)cc6)[nH]5)CC4)ncnc3[nH]2)cn1` [P-3190, 4-[4-[5-[4-(difluoromethyl)phenyl]-4-methyl-1H-imidazol-2-yl]-4-methyl-1-piperidyl]-6-(6-methoxy-3-pyridyl)-7H-pyrrolo[2,3-d]pyrimidine] showed an IC50 [1] of 0.0001 to 1 µM and an IC50 [2] of under 10000 nM.
For `COc1ccc(-c2[nH]c(C3(C)CCN(c4ncnc5[nH]c(-c6ccc(C(N)=O)cc6)cc45)CC3)nc2C)cc1C` [P-3216, 4-[4-[4-[5-(4-methoxy-3-methyl-phenyl)-4-methyl-1H-imidazol-2-yl]-4-methyl-1-piperidyl]-7H-pyrrolo[2,3-d]pyrimidin-6-yl]benzamide], the IC50 [1] was 0.0001 to 1 µM and the IC50 [2] was under 10000 nM.
In the case of `COc1ccc(-c2cc3c(N4CCC(C)(c5nc(C)c(-c6ccc(OC)c(F)c6)[nH]5)CC4)ncnc3[nH]2)cn1` [P-3188, 4-[4-[5-(3-fluoro-4-methoxy-phenyl)-4-methyl-1H-imidazol-2-yl]-4-methyl-1-piperidyl]-6-(6-methoxy-3-pyridyl)-7H-pyrrolo[2,3-d]pyrimidine], the IC50 [1] is reported as 0.0001 to 1 µM and the IC50 [2] is reported as under 10000 nM.
`Cc1nc(C2(C)CCN(c3ncnc4[nH]c(-c5cnn(C(F)F)c5)cc34)CC2)[nH]c1-c1ccc(C(F)(F)F)cc1` [P-3179, 6-[1-(difluoromethyl)pyrazol-4-yl]-4-[4-methyl-4-[4-methyl-5-[4-(trifluoromethyl)phenyl]-1H-imidazol-2-yl]-1-piperidyl]-7H-pyrrolo[2,3-d]pyrimidine] was tested, and the IC50 [1] was 0.0001 to 1 µM and the IC50 [2] was under 10000 nM.
Compound `CCOc1ccc(-c2[nH]c(C3(C)CCN(c4ncnc5[nH]c(-c6ccc(C(N)=O)cc6)cc45)CC3)nc2C)cc1` [P-3229, 4-[4-[4-[5-(4-ethoxyphenyl)-4-methyl-1H-imidazol-2-yl]-4-methyl-1-piperidyl]-7H-pyrrolo[2,3-d]pyrimidin-6-yl]benzamide] has an IC50 [1] of 0.0001 to 1 µM and an IC50 [2] of under 10000 nM.
Work on `CCOc1ccc(-c2[nH]c(C3(C)CCN(c4ncnc5[nH]c(-c6ccc(OCC(=O)O)cc6)cc45)CC3)nc2C)cc1` [P-3224, 2-[4-[4-[4-[5-(4-ethoxyphenyl)-4-methyl-1H-imidazol-2-yl]-4-methyl-1-piperidyl]-7H-pyrrolo[2,3-d]pyrimidin-6-yl]phenoxy]acetic acid] yielded an IC50 [1] of 0.0001 to 1 µM and an IC50 [2] of under 10000 nM.
`CCc1[nH]c(C2CCN(c3ncnc4[nH]c(-c5cnn(C(F)F)c5)cc34)CC2)nc1C` [P-3197, 6-[1-(difluoromethyl)pyrazol-4-yl]-4-[4-(5-ethyl-4-methyl-1H-imidazol-2-yl)-1-piperidyl]-7H-pyrrolo[2,3-d]pyrimidine] gave an IC50 [1] of 1 to 10 µM and an IC50 [2] of under 10000 nM.
`COc1ccc(-c2cc3c(N4CCC(C)(c5nc(C)c(-c6ccc(Cl)cc6)[nH]5)CC4)ncnc3[nH]2)cn1` [P-3176, 4-[4-[5-(4-chlorophenyl)-4-methyl-1H-imidazol-2-yl]-4-methyl-1-piperidyl]-6-(6-methoxy-3-pyridyl)-7H-pyrrolo[2,3-d]pyrimidine] gave an IC50 [1] of 0.0001 to 1 µM and an IC50 [2] of under 10000 nM.

Source: patent US9771369B2, “Compounds and methods for kinase modulation, and indications therefor” (Plexxikon Inc., priority 2014, dated 2017)
